Patent US20150018546A1, “HETEROCYCLIC COMPOUND HAVING ANTI-HIV ACTIVITY” (TOYAMA CHEMICAL CO., LTD., priority 2012, published 2015)
Where two headings read alike, the source gives them in different places.

System: HIV-1 (JRCSF)
Experiment: Anti-HIV activity in MaRBLE cells infected with HIV-1 (JRCSF), luciferase readout
Assay type: cell-based
Conditions: read-out: Anti-HIV activity IC50
Description: This test was conducted with reference to Journal of Clinical Microbiology, 2007, Vol. 45, p. 477-487.
The anti-HIV activity was evaluated using MaRBLE cells in which a luciferase gene to be expressed under the control of HIV-1 LTR and a CCR5 gene, etc. were introduced in human T lymphocyte-derived HPB-M(a).
A fresh medium or each appropriately diluted test compound was dispensed to 96-well plates to prepare drug solution-containing plates.
The MaRBLE cells were suspended in RPMI1640 containing 10% FCS (fetal calf serum) and penicillin/streptomycin and infected with HIV-1 (JRCSF). Then, the cells were inoculated to the drug solution-containing plates (1×10^5 cells/well). The same number of uninfected cells were inoculated as a control group to the drug solution-containing plates.
After culture at 37° C. for 7 days in a 5% CO2 atmosphere, the intracellular luciferase activity was measured using Steady-Glo Luciferase assay system (Promega Corp.).
The rate of viral proliferation was determined according to the following expression:
Rate of viral proliferation(%)=(A/B)×100
A=(Firefly luciferase activity of the compound-supplemented well)−(Firefly luciferase activity of the uninfected cells)
B=(Firefly luciferase activity of the compound-free well)−(Firefly luciferase activity of the uninfected cells)
IC50 of the compound was calculated by a plot with concentration as the logarithm and the rate of viral proliferation as the real part using the FORECAST function (linear regression method) of Microsoft Office Excel 2003.

[1] = Human immunodeficiency virus 1, 168 h, MaRBLE cells (human T lymphocyte-derived HPB-M(a)) infected with HIV-1 (JRCSF), 7 days culture, rate of viral proliferation by luciferase activity

Compound	IC50 [1]	other results
O=c1cc(NCc2ccc3ccccc3c2)c2cncnc2n1O [Example 3, 8-hydroxy-5-((2-naphthylmethyl)amino)pyrido[2,3-d]pyrimidin-7(8H)-one]	190 nM	–
Cc1ncnc2c1c(Nc1ccccc1)cc(=O)n2O [Example 87, 5-anilino-8-hydroxy-4-methylpyrido[2,3-d]pyrimidin-7(8H)-one]	81 nM	–
Cc1ncnc2c1c(NCc1ccc(C(F)(F)F)nc1)cc(=O)n2O [Example 83, 8-hydroxy-4-methyl-5-(((6-(trifluoromethyl)pyridin-3-yl)methyl)amino)pyrido[2,3-d]pyrimidine-7(8H)-one]	370 nM	–
Cc1ncnc2c1c(NCc1cccc(CN(C)C)c1)cc(=O)n2O [Example 143, 5-((3-((dimethylamino)methyl)benzyl)amino)-8-hydroxy-4-methylpyrido[2,3-d]pyrimidin-7(8H)-one]	120 nM	–
Cc1ncnc2c1c(NCc1ccc(N(C)C)nc1)cc(=O)n2O [Example 40, 5-(((6-(dimethylamino)pyridin-3-yl)methyl)amino)-8-hydroxy-4-methylpyrido[2,3-d]pyrimidin-7(8H)-one]	48 nM	–
Cc1ncnc2c1c(NCc1ccc(-c3ccccc3)nc1)cc(=O)n2O [Example 94, 8-hydroxy-4-methyl-5-(((6-phenylpyridin-3-yl)methyl)amino)pyrido[2,3-d]pyrimidin-7(8H)-one]	43 nM	–
Cc1ncnc2c1c(NCc1ccco1)cc(=O)n2O [Example 153, 5-((2-furylmethyl)amino)-8-hydroxy-4-methylpyrido[2,3-d]pyrimidin-7(8H)-one]	130 nM	–
O=c1cc(Nc2ccccc2)c2cncnc2n1O [Example 16, 5-anilino-8-hydroxypyrido[2,3-d]pyrimidin-7(8H)-one]	280 nM	–
CNc1cccc(CNc2cc(=O)n(O)c3ncnc(C)c23)c1 [Example 84, 8-hydroxy-4-methyl-5-((3-(methylamino)benzyl)amino)pyrido[2,3-d]pyrimidin-7(8H)-one]	–	IC50 (Human immunodeficiency virus 1, 168 h): 76 nM
Cc1ncnc2c1c(NCc1cncc(F)c1)cc(=O)n2O [Example 51, 5-(((5-fluoropyridin-3-yl)methyl)amino)-8-hydroxy-4-methylpyrido[2,3-d]pyrimidin-7(8H)-one]	97 nM	–
COc1ccc(CNc2cc(=O)n(O)c3ncnc(C)c23)cc1 [Example 32, 8-hydroxy-5-((4-methoxybenzyl)amino)-4-methylpyrido[2,3-d]pyrimidin-7(8H)-one]	29 nM	–
Cc1ncnc2c1c(NCC1CCN(C)CC1)cc(=O)n2O [Example 156, 8-hydroxy-4-methyl-5-(((1-methylpiperidin-4-yl)methyl)amino)pyrido[2,3-d]pyrimidin-7(8H)-one]	590 nM	–
Cc1ncnc2c1c(NCc1cccnc1OCC(F)(F)F)cc(=O)n2O [Example 147, 8-hydroxy-4-methyl-5-(((2-(2,2,2-trifluoroethoxy)pyridin-3-yl)methyl)amino)pyrido[2,3-d]pyrimidin-7(8H)-one]	83 nM	–
Cc1ncnc2c1c(NCCc1ccncc1)cc(=O)n2O [Example 86, 8-hydroxy-4-methyl-5-((2-(pyridin-4-yl)ethyl)amino)pyrido[2,3-d]pyrimidin-7(8H)-one]	500 nM	–
COc1ccc(CNc2cc(=O)n(O)c3ncnc(C)c23)cn1 [Example 158, 8-hydroxy-5-(((2-methoxypyridin-5-yl)methyl)amino)-4-methylpyrido[2,3-d]pyrimidin-7(8H)-one]	74 nM	–
Cc1ncnc2c1c(NCc1ccc(N)cc1)cc(=O)n2O [Example 125, 5-((4-aminobenzyl)amino)-8-hydroxy-4-methylpyrido[2,3-d]pyrimidin-7(8H)-one]	63 nM	–
O=c1cc(NCCc2ccccc2)c2cncnc2n1O [Example 17, 8-hydroxy-5-((2-phenylethyl)amino)pyrido[2,3-d]pyrimidin-7(8H)-one]	690 nM	–
Cc1ncnc2c1c(NCc1ccc3c(c1)OCCO3)cc(=O)n2O [Example 52, 5-(((2,3-dihydro-1,4-benzodioxin-6-yl)methyl)amino)-8-hydroxy-4-methylpyrido[2,3-d]pyrimidin-7(8H)-one]	20 nM	–
Cc1ncnc2c1c(NCc1ccc(Oc3ccccc3)nc1)cc(=O)n2O [Example 146, 8-hydroxy-4-methyl-5-(((6-phenoxypridin-3-yl)methyl)amino)pyrido[2,3-d]pyrimidin-7(8H)-one]	–	IC50 (MaRBLE cells (human T lymphocyte-derived HPB-M(a)) infected with HIV-1 (JRCSF), 7 days culture, rate of viral proliferation by luciferase activity): 100 nM
COc1ccc(CNc2cc(=O)n(O)c3ncncc23)cc1 [Example 1, 8-hydroxy-5-((4-methoxybenzyl)amino)pyrido[2,3-d]pyrimidin-7(8H)-one]	110 nM	–
Cc1ncnc2c1c(NCc1ccc(O)cc1)cc(=O)n2O [Example 110, 8-hydroxy-5-((4-hydroxybenzyl)amino)-4-methylpyrido[2,3-d]pyrimidin-7(8H)-one]	49 nM	–

Compound	IC50 [1]	other results
Cc1ncnc2c1c(NCc1ccccn1)cc(=O)n2O [Example 150, 8-hydroxy-4-methyl-5-(((pyridin-2-yl)methyl)amino)pyrido[2,3-d]pyrimidin-7(8H)-one]	100 nM	–
Cc1ncnc2c1c(NCc1ccc(NS(C)(=O)=O)cc1)cc(=O)n2O [Example 128, N-(4-(((8-hydroxy-4-methyl-7-oxo-7,8-dihydropyrido[2,3-d]pyrimidin-5-yl)amino)methyl)phenyl)methanesulfonamide]	270 nM	–
O=c1c(-c2ccccc2)c(O)c2c(-c3ccccc3)ncnc2n1O [Example 67, 5,8-dihydroxy-4,6-diphenylpyrido[2,3-d]pyrimidin-7(8H)-one]	160 nM	–
Cc1ncnc2c1c(NCc1cccc(O)c1)cc(=O)n2O [Example 114, 8-hydroxy-5-((3-hydroxybenzyl)amino)-4-methylpyrido[2,3-d]pyrimidin-7(8H)-one]	42 nM	–
Cc1ncnc2c1c(NCc1cnc3ccccc3c1)cc(=O)n2O [Example 124, 8-hydroxy-4-methyl-5-(((quinolin-3-yl)methyl)amino)pyrido[2,3-d]pyrimidin-7(8H)-one]	58 nM	–
Cc1ncnc2c1c(NCc1ccc(Cl)cc1)cc(=O)n2O [Example 44, 5-((4-chlorobenzyl)amino)-8-hydroxy-4-methylpyrido[2,3-d]pyrimidin-7(8H)-one]	29 nM	–
Cc1ncnc2c1c(NCC1CCCCC1)cc(=O)n2O [Example 35, 5-((cyclohexylmethyl)amino)-8-hydroxy-4-methylpyrido[2,3-d]pyrimidin-7(8H)-one]	68 nM	–
Cc1ccc(CNc2cc(=O)n(O)c3ncnc(C)c23)cn1 [Example 50, 8-hydroxy-4-methyl-5-(((6-methylpyridin-3-yl)methyl)amino)pyrido[2,3-d]pyrimidin-7(8H)-one]	110 nM	–
O=C(NCc1ccccc1)c1ncnc2c1c(O)cc(=O)n2O [Example 63, N-benzyl-5,8-dihydroxy-7-oxo-7,8-dihydropyrido[2,3-d]pyrimidine-4-carboxamide]	870 nM	–
O=c1cc(O)c2c(NCCc3ccccc3)ncnc2n1O [Example 80, 5,8-dihydroxy-4-((2-phenylethyl)amino)pyrido[2,3-d]pyrimidine-7(8H)-one]	570 nM	–
O=c1cc(NCC2CCCCC2)c2cncnc2n1O [Example 4, 5-((cyclohexylmethyl)amino)-8-hydroxypyrido[2,3-d]pyrimidin-7(8H)-one]	410 nM	–
Cc1ncnc2c1c(NCc1cnccc1C(F)(F)F)cc(=O)n2O [Example 133, 8-hydroxy-4-methyl-5-(((4-(trifluoromethyl)pyridin-3-yl)methyl)amino)pyrido[2,3-d]pyrimidin-7(8H)-one]	59 nM	–
Cc1ncnc2c1c(NCc1ccccc1)cc(=O)n2O [Example 22, 5-(benzylamino)-8-hydroxy-4-methylpyrido[2,3-d]pyrimidin-7(8H)-one]	47 nM	–
Cc1ncnc2c1c(O)cc(=O)n2O [Example 21, 5,8-dihydroxy-4-methylpyrido[2,3-d]pyrimidin-7(8H)-one]	880 nM	–
O=c1cc(O)c2c(O)ncnc2n1O [Example 77, 4,5,8-trihydroxypyrido[2,3-d]pyrimidin-7(8H)-one]	590 nM	–
Cc1ncnc2c1c(NC1CCCCC1)cc(=O)n2O [Example 37, 5-(cyclohexylamino)-8-hydroxy-4-methylpyrido[2,3-d]pyrimidin-7(8H)-one]	110 nM	–
CC(Nc1cc(=O)n(O)c2ncncc12)c1ccccc1 (centres unmarked) [Example 7, 8-hydroxy-5-((1-phenylethyl)amino)pyrido[2,3-d]pyrimidin-7(8H)-one]	170 nM	–
Cc1ncnc2c1c(NCc1ccc(CN)cc1)cc(=O)n2O [Example 134]	140 nM	–
Cc1ncnc2c1c(NCc1ccc(N3CCCCC3)nc1)cc(=O)n2O [Example 56, 8-hydroxy-4-methyl-5-(((6-(piperidin-1-yl)pyridin-3-yl)methyl)amino)pyrido[2,3-d]pyrimidin-7(8H)-one]	900 nM	–
Cc1ncnc2c1c(NCc1ccc3cc[nH]c3c1)cc(=O)n2O [Example 88, 8-hydroxy-5-(((1H-indol-6-yl)methyl)amino)-4-methylpyrido[2,3-d]pyrimidin-7(8H)-one]	63 nM	–
